The test system of series [1] is thrombocytes. Description: Test for inhibition of thrombocyte aggregation (turbidimetric, Born; aggregometer PAP 4). It counts as cell-based. To be noted: read-out: IC50 (platelet aggregation). The text has this:
The inhibition of platelet aggregation can be measured, inter alia, by determining platelet aggregation turbimetrically as described by Born (Born, GV, Nature, 1962,194: 927-929).
(§1) Principle of the test: the method is based on the property that the optical density of a particle suspension depends on the […]. After a platelet suspension has been stimulated, the platelets begin to aggregate. This leads to the appearance of relatively large platelet aggregates and to an increase in light transmission. This increase is registered photometrically, and recorded in curve form, continuously. The degrees to which the thrombocytes can be aggregated, or to which this aggregation can be inhibited, can be deduced from the changes in light transmission. The method of staining cells with calcein was used for determining cytotoxicity (Hollo Z et al., Biochim Biophys Acta 11;1191(2):384-8, 1994). Living cells incorporate the substrate calcein acetoxymethyl ester (C-AM), which is hydrolyzed in the cells by nonspecific esterases. […] In the living cell, it is converted into the fluorescent hydrolysis product and the vitality of the cells can be measured on the basis of the fluorescence (λex:485 nm/λem:538 nm).
By way of example, Table 2 summarizes the inhibitory effects of some hydroperylene derivatives as IC50 values. The IC50 value indicates the concentration which inhibits thrombocyte aggregation by 50% under defined conditions.
Test for Inhibition of Thrombocyte Aggregation
The assay was carried out as follows:
Final concentration of activator: 0.05 U of thrombin/ml or 1 μg of collagen/ml
Aggregation in Aggregometer (PAP 4)
Cell number, 3×10^5 thrombocytes/μl
The blank value for the channels of the aggregometer is first of all adjusted using buffer. The thrombocytes are then pipetted into microtubes and, after the thrombocytes have been added, heated at 37° C. for a few minutes in the aggregometer. After a magnetic stirrer has been added to each reaction tube, the substances, and CaCl2, are added and a start is made in recording the course of the curve in the aggregometer. After 2 minutes of incubation, the activator, or buffer in the case of the control, is added. The course of the curve is then recorded for a further 6 min at 37° C. and at a stirrer speed of 1050 revolutions per minute.

In series [2] the test system is cells. Kind of series: Cytotoxicity by staining cells with calcein (calcein AM fluorescence). Type of series: cell-based. To be noted: read-out: IC50 (toxicity).
Excerpt: as §1

The nature of series [3]: Solubility of thioperylenol. Type of series: physicochemical. From the text: (§2) The physicochemical and spectroscopic properties of thioperylenol can be summarized as follows:
(§3) Brownish crystals which are soluble in medium-polar and polar organic solvents and soluble in aqueous neutral buffers. Stable in neutral and mildly acidic, non-oxidizing medium but unstable in strongly acidic and strongly alkaline solution.

The nature of series [4]: Stability of thioperylenol in solution. Type of series: physicochemical.
Excerpt: as §2, §3

[5] abbreviates: concentration which inhibits thrombocyte aggregation by 50%, activator 0.05 U of thrombin/ml or 1 μg of collagen/ml, 37° C.
Setting [6] is: cell toxicity, calcein AM staining.

Like-named read-outs stand apart in the source and are kept apart here.

What is called IC50 is the concentration at which inhibition is half-maximal. For `O=C1CCC2(O)c3c(ccc(O)c31)-c1ccc(O)c3c1C2C1OC1C3=O` (centres unmarked) [Altertoxin II], the 50% inhibitory concentration (IC50) in series [1] (setting [5]) is 2.6 µM; in series [2] (setting [6]), 10 µM.
For `O=C1CC(SCC(O)C(=O)O)[C@]2(O)c3c(ccc(O)c31)-c1ccc(O)c3c1C2C1OC1C3O` (some centres unmarked) [Thioperylenol, thioperylenol], the Solubility entry was “soluble” in series [3] (aqueous neutral buffers); “soluble” in series [3] (medium-polar and polar organic solvents). Further, the IC50 in series [1] (Platelet, concentration which inhibits thrombocyte aggregation by 50%, activator 0.05 U of thrombin/ml or 1 μg of collagen/ml, 37° C.) was 7.2 µM; in series [2] (setting [6]), 61 µM. For the same molecule, the Stability result in series [4] (neutral and mildly acidic, non-oxidizing medium) is “Stable”; in series [4] (strongly acidic and strongly alkaline solution), “unstable”.
Altertoxin III: the 50% inhibitory concentration (IC50) in series [1] (setting [5]) is 6.1 µM; in series [2] (setting [6]) it was 20 µM.
Taken in the same sequence, the figures for `O=C1C[C@H](O)[C@@H]2c3c(ccc(O)c31)-c1ccc(O)c3c1[C@@]2(O)CCC3=O` [Altertoxin I] were 29 µM and > 100 µM.
For `O=C1C[C@@H](O)[C@H]2c3c(ccc(O)c31)-c1ccc(O)c3c1[C@]2(O)C=CC3=O` (stereo in doubt) [Alterperylenol], the IC50 in series [1] (Platelet) was 1.6 µM; in series [2], > 100 µM.

The values above are taken from patent US6673834B2, “Hydroperylene derivatives” (priority 2001, dated 2004).
